Test [1] deals with T1, Transient receptor potential cation channel subfamily V member 6 (Homo sapiens, UniProt Q9H1D0).
T1 sequence (Q9H1D0 whole entry): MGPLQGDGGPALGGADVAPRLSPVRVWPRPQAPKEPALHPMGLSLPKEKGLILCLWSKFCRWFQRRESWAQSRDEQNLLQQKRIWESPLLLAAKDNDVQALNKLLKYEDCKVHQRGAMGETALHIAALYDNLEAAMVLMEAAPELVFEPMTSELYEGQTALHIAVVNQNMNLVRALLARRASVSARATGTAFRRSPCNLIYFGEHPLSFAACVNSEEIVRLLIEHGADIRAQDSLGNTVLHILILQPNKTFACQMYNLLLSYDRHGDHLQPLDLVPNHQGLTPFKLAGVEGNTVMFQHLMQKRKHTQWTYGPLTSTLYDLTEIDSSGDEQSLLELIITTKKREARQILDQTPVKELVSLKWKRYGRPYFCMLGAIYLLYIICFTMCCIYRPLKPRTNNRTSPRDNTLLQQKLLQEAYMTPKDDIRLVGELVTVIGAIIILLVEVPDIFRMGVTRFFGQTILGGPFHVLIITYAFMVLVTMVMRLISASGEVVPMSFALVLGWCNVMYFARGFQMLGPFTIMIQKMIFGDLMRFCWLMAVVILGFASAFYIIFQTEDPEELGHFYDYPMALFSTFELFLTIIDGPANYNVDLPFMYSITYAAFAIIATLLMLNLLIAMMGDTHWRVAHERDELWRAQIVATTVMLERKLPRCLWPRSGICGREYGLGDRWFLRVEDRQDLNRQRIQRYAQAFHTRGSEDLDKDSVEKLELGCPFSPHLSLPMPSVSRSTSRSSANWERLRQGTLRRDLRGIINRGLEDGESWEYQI
Briefly: Inhibition of TRPV6 (unknown origin).

Test [2] relates to T47D. Briefly: Antiproliferative activity against human T47D cells assessed as reduction in cell viability incubated for 72 hrs by XTT assay. A general note: Tetrazolium dyes change colour on reduction, which living cells bring about.
The test system of test [3] is LNCaP. Briefly: Antiproliferative activity against human LNCaP cells assessed as reduction in cell viability incubated for 72 hrs by XTT assay.
The target in test [4] is T1, Transient receptor potential cation channel subfamily V member 6. Briefly: Inhibition of TRPV6 (unknown origin) expressed in Sf9 cells.
The target is the same in test [5]. Briefly: Inhibition of TRPV6 (unknown origin) transfected in HEK293 cells assessed as reduction in TRPV6-induced Cd2+ influx.

By IC50 is commonly meant the concentration that inhibits the measured activity by half. `COc1ccc(CCN2CCC[C@@H]2COCc2ccc(Cl)cc2)cc1`: the figures for the half-inhibitory concentration (IC50) in test [1], in test [2] and in test [3] were 0.44 µM, 38.8 µM and 0.44 µM, respectively.

Regarding `COc1ccc(CCN2CCC[C@@H]2COC(c2ccccc2)c2ccccc2)cc1`, the IC50 in test [2] is 198 µM; in test [3], 61 µM.

In the case of `CN(C)c1ccc(CCN2CCC[C@@H]2COC(c2ccccc2)c2ccc(Cl)cc2)cc1` (some centres not stated), the IC50 was 44.5 µM in test [2] and 0.31 µM in test [3].

Turning to `CCCc1cc(O)c2c(c1)OC(C)(C)[C@@H]1C=CC(C)=C[C@@H]21`, inhibition in test [4] was half-maximal at 9.4 µM (IC50).

Consider `c1ccc(COc2ccccc2CNC23CC4CC(CC(C4)C2)C3)cc1`, for which, in test [5], the IC50 worked out at 21 µM.

For `COc1cc(Br)ccc1CN1CCN(C2CCC(c3ccccc3)CC2)CC1` (configuration not stated), the IC50 in test [5] was found to be 26 µM.

`Fc1ccc(CCNCc2ccccc2OCc2ccc(F)cc2)cc1`: the IC50 in test [5] stood at 15 µM.

`c1ccc(Oc2cccc(CN3CCN(Cc4cccnc4)CC3)c2)cc1`: the IC50 in test [5] was found to be 17 µM.

As to `CN(C)c1ccc(CCN2CCC[C@@H]2CO)cc1`, the IC50 in test [2] was found to be 49.1 µM; in test [3] it was 1 µM.

For `c1ccc(C2CCC(N3CCN(Cc4ccco4)CC3)CC2)cc1` (configuration not stated), the concentration for half-maximal inhibition (IC50) in test [5] was 25 µM.

Regarding `COc1ccc(CCN2CCC[C@@H]2COC(c2ccccc2)c2ccc(Cl)cc2)cc1` (some centres not stated), the IC50 in test [2] worked out at 220 µM; in test [3], 50 µM.

The values are drawn from ChEMBL document CHEMBL5500350, “Advances in TRPV6 inhibitors for tumors by targeted therapies: Macromolecular proteins, synthetic small molecule compounds, and natural compounds” (Eur J Med Chem, 2024).
